Reference: PubChem BioAssay AID1963450 (Molecular Pharmacology Branch, DTP, NCI, 2024)
Several values for one entry are separate records, joined by “and”; a condition that tells them apart may be missing. Equal values may be shown once.

Test system: 556581-035-R-J1-PDC complex spheroid growth
Experiment: Anticancer human tumor 556581-035-R-J1-PDC patient-derived ovarian carcinoma cell line growth inhibition [Asc]
Conditions: for viability, T/C: stronger effect = lower value
Protocol: Multicellular complex tumor spheroid response to apoptosis pathway targeting inhibitors Alrizomadlin, Pelcitoclax, and Dasminapant in combination with a variety of drugs and investigational agents in selected tumor cell lines
The MDM2 inhibitor alrizomadlin, the Bcl-2/Bcl-xL inhibitor pelcitoclax, and the IAPs inhibitor dasminapant were evaluated both individually and in combination with standard of care and investigational anticancer small molecules within a complex spheroid model of solid tumors. . Complex spheroids include a stromal component modeled by human endothelial cells (HUVEC) and fibroblasts modeled by human mesenchymal stem cells (MSCs). The concentration ranges selected for each drug and investigational agent were based upon clinically achievable concentrations if the clinical Cmax of the agent was known.
Compounds. The drugs and investigational agents: alrizomadlin (APG-115; NSC831270), pelcitoclax (APG-1252; NSC835773), dasminapant (APG-1387;NSC834197), TAK-243 (NSC785004), copanlisib (NSC809693), olaparib (NSC753686), talazoparib (NSC767125), cobimetinib (NSC 768068), eltanexor (KPT-8602, NSC 794443), abemaciclib (NSC 768073), sotorasib (NSC818433), adagrasib (NSC 831453), MRTX-1133 (NSC 836407), Iadademestat (ORY1001, NSC 806812), and RMC-4630 (NSC839698), were obtained from the NCI Developmental Therapeutics Program Chemical Repository. The FDA-approved anticancer drug set is available from the Developmental Therapeutics Program at https://dtp.cancer.gov/organization/dscb/obtaining/available plates.htm. […] The stock solutions were prepared in dimethyl sulfoxide (DMSO, Sigma-Aldrich, St. Louis, MO, cat. D2650) at 800-fold the tested concentration and stored at -70 degrees C prior to their use. All drugs and investigational agents were tested over a range starting from a high concentration at or near the clinical Cmax and decreasing in half-log increments. If the clinical Cmax for an agent had not been determined, the highest concentration tested was 10 microM.
The patient-derived cancer (PDC) cell lines include five colon adenocarcinomas: 186277-243-T-J2-PDC, 616215-338-R-J1-PDC, 439559-082-T-J2-PDC, 463943-066-T-J2-PDC, and 519858-162-T-J1-PDC; three pancreatic carcinomas: 323965-272-R-J2-PDC, 521955-158-R6-J3-PDC, and 521955-158-R2-J5-PDC; two uterine sarcomas: 327498-152-R-J2-PDC and 993429-296-R-J1-PDC; two rhabdomyosarcomas: 755483-174-R-J1-PDC and 772245-204-R-J1-PDC; two soft tissue sarcomas: 126254-015-R-J1-PDC and 494315-158-R-J1-PDC; two malignant fibrous histiocytomas: 317291-083-R-J1-PDC and 596521-263-R-J1-PDC; two breast carcinomas: 171881-019-R-J1-PDC and 885512-296-R-J2-PDC; and one ovarian carcinoma: 6556581-035-R-J-PDC were obtained from the NCI PDMR, (https://pdmr.cancer.gov). The established cell lines HSSY-2 synovial sarcoma (RRID:CVCL 8719), SYO-1 synovial sarcoma (RRID:CVCL_7146), MPNST malignant peripheral neural sheath tumor were obtained from the Sloan Kettering Institute. The following established cell lines were purchased from the American Type Culture Collection (ATCC, Manassas, VA), Sor the received from the NCI repository:, PANC-1 pancreatic carcinoma (CRL-1469, RRID:CVCL_0480), OVCAR-5 ovarian carcinoma (RRID:CVCL_1628), OVCAR-8 ovarian carcinoma (RRID:CVCL_1629), , MCF-7 breast carcinoma (CRL-12584, RRID:CVCL_0031), MDA-MB-231 breast carcinoma (CRL-12532, RRID:CVCL_0062), NCI-H1876 small cell lung carcinoma (CRL-5902, RRID:CVCL_1503), NCI-H510A small cell lung carcinoma (HTB-184, RRID:CVCL_1565), NCI-H1417 (CRL-5869, RRID:CVCL_1469), and NCI-H196 small cell lung carcinoma (CRL-5823, RRID:CVCL_1509). Dr. Peter Houghton (Greehey Children's Cancer Research Institute, University of Texas Health Science Center, San Antonio, TX) provided Rh-18 rhabdomyosarcoma (RRID:CVCL_1659). Pooled donor human umbilical vein endothelial cells (HUVEC, Lonza, cat. CC-2519) and human mesenchymal stem cells (hMSC, Lonza, cat. PT-2501) were purchased from Lonza (Walkersville, MD).
Cell Culture. […]

[1] = compound alone, run of 10/11/2022
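Note: spheroids exposed to agents for 7 days before viability read.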

Compound	viability, T/C (compound 0.0316 µM)	viability, T/C (compound 0.1 µM)	viability, T/C (compound 0.316 µM)	viability, T/C (compound 1 µM)	viability, T/C (compound 3.16 µM)	viability, T/C (compound 10 µM)	IC50 (curve of compound)	viability, T/C (compound 0.00316 µM)	viability, T/C (compound 0.01 µM)	other results
C#Cc1c(F)ccc2cc(O)cc(-c3ncc4c(N5CC6CCC(C5)N6)nc(OCC56CCCN5CC(F)C6)nc4c3F)c12 (configuration not stated)	101% and 92.2% and 88%	105% and 102% and 87.2%	94.2% and 81% and 90.1%	102% and 80.5% and 75.8%	97.2% and 89.5% and 113%	91.1% and 85.6% and 83.9%	> 10 µM	–	–	–
C=C(F)C(=O)N1CCN(c2nc(OCC3CCCN3C)nc3c2CCN(c2cccc4cccc(Cl)c24)C3)CC1CC#N (configuration not stated)	77.9% and 98.7% and 100%	113% and 115% and 91.5%	102% and 110% and 95%	90.5% and 87% and 93.3%	48.4% and 64.9% and 55.1%	15% and 3.22% and 1%	3.02 µM and 4.07 µM and 3.52 µM	–	–	–
C=CC(=O)N1CCN(c2nc(=O)n(-c3c(C)ccnc3C(C)C)c3nc(-c4c(O)cccc4F)c(F)cc23)C(C)C1 (configuration not stated)	111% and 113% and 95.5%	88.9% and 109% and 106%	104% and 110% and 108%	83.5% and 88.5% and 109%	99% and 99.9% and 109%	111% and 76.8% and 107%	> 10 µM	–	–	–
CCN1C(C(=O)NC23CCC(C(=O)O)(CC2)CC3)C(c2cccc(Cl)c2F)C2(C(=O)Nc3cc(Cl)ccc32)C12CCCCC2 (configuration not stated)	–	–	–	–	–	–	> 3 µM	–	–	viability, T/C (compound 0.00949 µM): 95.4% and 108%; IC50 [1]: > 3 µM
CCN1CCN(Cc2ccc(Nc3ncc(F)c(-c4cc(F)c5nc(C)n(C(C)C)c5c4)n3)nc2)CC1	88.9% and 97.7% and 107%	85.2% and 84.8% and 106%	76.2% and 64.5% and 69.5%	76.5% and 76.4% and 66.7%	–	–	> 1 µM	105% and 78% and 90.7%	84.4% and 87.4% and 107%	–
CNC(C)C(=O)NC1CN(S(=O)(=O)c2cccc(S(=O)(=O)N3CCC4CCC(C(=O)NC(c5ccccc5)c5ccccc5)N4C(=O)C(NC(=O)C(C)NC)C3)c2)CCC2CCC(C(=O)NC(c3ccccc3)c3ccccc3)N2C1=O (configuration not stated)	89.3% [middle of 14 runs]	–	74.3% [middle of 14 runs]	–	–	–	> 1 µM	96.2% and 82.3% and 87.2%	–	IC50 (compound alone, run of 10/24/2022): > 1 µM; IC50 (compound alone, run of 11/15/2022): > 1 µM
COc1c(OCCCN2CCOCC2)ccc2c3n(c(=NC(=O)c4cnc(N)nc4)nc12)CCN3	46.2% and 48.9% and 45.8%	48.2% and 42% and 41%	31.7% and 22.4% and 24.1%	11.9% and 14.8% and 17.5%	–	–	0.0537 µM and 0.0381 µM and 0.0259 µM	78.2% and 82.3% and 79.7%	72.5% and 69% and 57%	–
Cc1c(S(C)(=O)=O)c(-c2cc(F)cc(N3CCN(c4ccc(NS(=O)(=O)c5ccc(NC(CCN6CCC(C(=O)OCCCP(=O)(O)O)CC6)CSc6ccccc6)c(S(=O)(=O)C(F)(F)F)c5)cc4)CC3)c2)c(-c2ccc(Cl)cc2)n1C(C)C (configuration not stated)	–	80.6% [middle of 14 runs]	73.5% [middle of 14 runs]	66.1% [middle of 14 runs]	66.3% [middle of 14 runs]	61.9% [middle of 14 runs]	–	–	–	IC50 [1]: > 10 µM
Cc1nc(N2CCC3(CC2)COC(C)C3N)c(CO)nc1Sc1ccnc(N)c1Cl (configuration not stated)	–	–	–	–	–	–	2.29 µM and > 3 µM	–	–	viability, T/C (compound 0.00949 µM): 111% (2×) and 89.8%; viability, T/C (compound 0.03 µM): 101% and 92.6% and 91.2%; viability, T/C (compound 0.0949 µM): 87.5% and 79.8% and 84%; viability, T/C (compound 0.3 µM): 81.9% and 68.8% and 83.9%; viability, T/C (compound 0.949 µM): 62.8% and 61.9% and 56.5%; viability, T/C (compound 3 µM): 44.7% and 51% and 51.8%
Cn1ncnc1[C@H]1c2n[nH]c(=O)c3cc(F)cc(c23)N[C@@H]1c1ccc(F)cc1	105% and 86.6% and 94.5%	99.7% and 85.6% and 94.2%	–	–	–	–	> 0.1 µM	97.7% and 107% and 74.9%	106% and 99.9% and 76.3%	viability, T/C (compound 0.000316 µM): 100% and 86.8% and 84.9%; viability, T/C (compound 0.001 µM): 111% and 95.3% and 97%
NC(=O)C(=Cn1cnc(-c2cc(C(F)(F)F)cc(C(F)(F)F)c2)n1)c1cncnc1	–	–	–	–	–	–	> 0.3 µM	–	–	viability, T/C (compound 0.000949 µM): 96.8% and 78.4% and 91%; viability, T/C (compound 0.003 µM): 79.9% and 83.7% and 94.9%; viability, T/C (compound 0.00949 µM): 97.6% and 97.4% and 87%; viability, T/C (compound 0.03 µM): 88.8% and 107% and 101%; viability, T/C (compound 0.0949 µM): 97.1% and 55.4% and 87.1%; viability, T/C (compound 0.3 µM): 95.9% and 77.4% and 102%
NC1CCC(NC2CC2c2ccccc2)CC1 (configuration not stated)	94.2% and 84.8% and 111%	87.9% and 97.2% and 85%	–	–	–	–	> 0.1 µM	92.3% and 95.4% and 89.9%	89.6% and 94.8% and 95.2%	viability, T/C (compound 0.000316 µM): 86.2% and 89% and 93.9%; viability, T/C (compound 0.001 µM): 88.5% and 105% and 92.8%
O=C(c1cc(Cc2n[nH]c(=O)c3ccccc23)ccc1F)N1CCN(C(=O)C2CC2)CC1	102% and 112% and 91.3%	107% and 101% and 99.2%	106% (2×) and 60%	95.7% and 85.4% and 88.8%	106% and 98.3% and 72.7%	81.1% and 83.3% and 78.6%	> 10 µM	–	–	–
O=C(c1ccc(F)c(F)c1Nc1ccc(I)cc1F)N1CC(O)([C@@H]2CCCCN2)C1	59.3% and 70.2% and 121%	63.9% and 59.8% and 92%	50.6% and 37.8% and 42%	7.45% and 10.7% and 14%	–	–	0.171 µM and 0.164 µM and 0.263 µM	108% and 79.6% and 89.6%	109% and 97.5% and 101%	–
